How the values were obtained:
PKC-α = test: Western blot of PKC-α phosphorylation, ATP-activated LPS-primed J774A.1 macrophages; type: cell-based, murine; details: compound 1h 20 μM
Procedure: In (A), J774A.1 macrophages (1×10^6/ml) were incubated with LPS (1 μg/ml) for 5.5 h and then incubated with compound 1 h ([…]), DPI (100 μM), or DMSO (vehicle) for 30 min followed by ATP (5 mM) stimulating for the indicated time, then ROS levels were measured by detection of the fluorescence intensity of the fluorophore carboxyl-DCF and expressed relative to those at time zero. In (B), J774A.1 macrophages (1×10^6/ml) were incubated with compound 1h (20 μM), DPI (100 μM), or DMSO (vehicle) for 30 min followed by LPS (1 μg/ml) stimulating for 5.5 h, then the cells were stimulated with ATP (5 mM) for the indicated time. The ROS levels were measured by detection of the fluorescence intensity of the fluorophore carboxyl-DCF and expressed relative to those at time zero. In (C), LPS-primed J774A.1 macrophages (1×10^6/ml) were incubated with compound 1h (20 μM) or DMSO (vehicle) for 30 min followed by ATP (5 mM) stimulating for 0-60 min, then the phosphorylation level of PKC-α was analyzed by Western blot.
Whole cell lysates were separated by SDS-PAGE and electrotransferred to a PVDF membrane. The membranes were incubated in blocking solution—5% nonfat milk in phosphate buffered saline with 0.1% Tween 20—at room temperature for 1 h. Each membrane was incubated with a specific primary antibody at room temperature for 2 h. […]

IKK-α and IκB-α = test: Western blot of IKK-α and IκB-α, LPS-activated J774A.1 macrophages; type: cell-based, murine; details: LPS-activated J774A.1, LPS 20 min
Procedure: (A) RAW 264.7 macrophages (5×10^5/ml) or (B) J774A.1 macrophages (5×10^5/ml) were incubated with compound 1h or DMSO for 30 min followed by LPS (1 μg/ml) stimulating for 20 min, then the phosphorylation levels of IKK-α and IκB-α and total IκB-α protein level were analyzed by Western blot. (C) RAW 264.7 macrophages (5×10^5/ml) or (D) J774A.1 macrophages (5×10^5/ml) were incubated with compound 1h (10-40 μM) or DMSO for 30 min followed by LPS (1 μg/ml) stimulating for 20 min, then the nuclear translocation of NF-κB were analyzed by ELISA. (E) RAW-Blue™ cells (5×10^5/ml) were incubated with compound 1h (2.5-40 μM) or DMSO for 30 min followed by LPS (1 μg/ml) stimulating for 24 h, then the SEAP activity was measured by QUANTI-Blue™. […] In (C), (D), and (E), the data are expressed as the mean±SD for three separate experiments. *, **, and *** indicate a significant difference at the level of p<0.05, p<0.01, and p<0.001 respectively compared to LPS group.
(§1) Whole cell lysates were separated by SDS-PAGE and electrotransferred to a PVDF membrane. The membranes were incubated in blocking solution—5% nonfat milk in phosphate buffered saline with 0.1% Tween 20—at room temperature for 1 h. Each membrane was incubated with a specific primary antibody at room temperature for 2 h. After washing three times in PBS with 0.1% Tween 20, the membrane was incubated with an HRP-conjugated secondary antibody directed against the primary antibody. The membrane was developed by an enhanced chemiluminescence Western blot detection system.

COX-2 = test: Western blot of COX-2 protein in LPS-activated RAW 264.7 macrophages; type: cell-based, murine
Procedure: In (A) and (C), cells (5×10^5/ml) were incubated with polyenylpyrrole derivatives or DMSO (vehicle) for 30 min followed by stimulating with LPS (1 μg/ml) for 24 h, then NO (A), IL-6 and TNF-α (C) concentration in culture medium were assayed by Griess reaction and ELISA, respectively. In (B), cells (5×10^5/ml) were pretreated with polyenylpyrrole derivatives or DMSO for 30 min followed by stimulating with LPS (1 μg/ml) for 24 h, then the protein expression of iNOS and COX-2 were assayed by Western blot.
as §1

TNF-α = TNF-α ELISA, LPS-activated peritoneal macrophages; type: cell-based, C57BL/6 mice; details: LPS 1 μg/ml 24 h
Procedure: (A) J774A.1 macrophages (4×10^5/ml), (B) peritoneal macrophages (4×10^5/ml), and (C) JAWSII dendritic cells (4×10^5/ml) were incubated with compound 1h or DMSO for 30 min followed by stimulating with LPS (1 μg/ml) for 24 h, then IL-6 and TNF-α concentration in culture medium were assayed by ELISA. The data are expressed as the mean±SD for three separate experiments. *, **, and *** indicate a significant difference at the level of p<0.05, p<0.01, p<0.001 respectively compared to LPS group.
The effects of tested samples on IL-1β, TNF-α and IL-6 production were measured by ELISA according to the manufacturer's instruction. In brief, 50 μl of biotinylated antibody reagent and 50 μl of supernatant were added to an anti-mouse IL-1β, TNF-α and IL-6 precoated stripwell plate, and incubated at room temperature for 2 h. After washing the plate three times with washing buffer, 100 μl of diluted streptavidin-HRP concentrate was added to each well and incubated at room temperature for 30 min. The washing process was repeated; then 100 μl of a premixed tetramethylbenzidine substrate solution was added to each well and developed at room temperature in the dark for 30 min. Following the addition of 100 μl of stop solution to each well to stop the reaction, the absorbance of the plate was measured by a microplate reader at 450 nm wavelength.

O=c1cc(O)cc(/C=C/C=C/C=C/C=C/c2[nH]ccc2Cl)o1 [Compound 1h]
ATP-induced PKC-α phosphorylation (PKC-α): inhibited
IκB-α degradation (IKK-α and IκB-α): partially rescued
phosphorylation level of IKK-α (IKK-α and IκB-α): inhibited
phosphorylation level of IκB-α (IKK-α and IκB-α): inhibited
COX-2 expression (COX-2): did not affect
secretion of TNF-α (TNF-α): reduced
